Reference: patent publication US20180002366A1, “4'-SUBSTITUTED NUCLEOSIDE REVERSE TRANSCRIPTASE INHIBITORS” (MERCK SHARP & DOHME CORP., priority 2014, published 2018)
pIC50: −log10 of the molar value. One block for each compound: values may come before it.

Key:
[1] = target: T1, adenosine deaminase (ADA) type 1 (Homo sapiens, UniProt P00813); test: Adenosine Deaminase (ADA) Half-Life; type: in vitro ADME; conditions: human, human adenosine deaminase (ADA) type 1 in Tris-HCl buffer; time for 50% conversion to inosine product; Tris-HCl buffer pH 7.5, 40° C., LCMS
T1 sequence (P00813 1-363): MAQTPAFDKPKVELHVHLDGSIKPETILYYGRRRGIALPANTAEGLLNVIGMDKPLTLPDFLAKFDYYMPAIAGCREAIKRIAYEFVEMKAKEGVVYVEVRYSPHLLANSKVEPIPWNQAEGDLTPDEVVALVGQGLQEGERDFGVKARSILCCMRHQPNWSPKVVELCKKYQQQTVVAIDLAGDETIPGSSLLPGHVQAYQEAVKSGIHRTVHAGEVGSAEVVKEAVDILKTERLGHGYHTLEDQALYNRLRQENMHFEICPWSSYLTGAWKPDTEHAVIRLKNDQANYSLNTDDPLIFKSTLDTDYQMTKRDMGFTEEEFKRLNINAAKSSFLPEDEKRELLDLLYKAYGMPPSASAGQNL
Protocol: (§1) The data in Table 5 was generated by reacting a substrate compound with human ADA type 1 in the presence of Tris-HCl buffer (pH 7.5) at 40° C. and monitoring by LCMS for consumption of starting material. The time necessary for 50% conversion to the corresponding inosine product is noted as the T1/2 in Table 5. It is known that deamination by adenosine deaminase decreases the therapeutic potential of adenosine-like nucleoside inhibitors especially in vivo (see references below). […] It is possible that compounds that are more resistant to ADA will have better pharmacokinetic properties.
(§2) Tris-HCl buffer (pH 7.5, 5 mL) was injected into a 25-mL round-bottom flask. The mixture was heated to reflux for 30 minutes. Then the mixture was cooled to 30° C. and (2R,3S,5R)-5-(4-amino-5-fluoro-7H-pyrrolo[2,3-d]pyrimidin-7-yl)-2-ethynyl-2-(hydroxymethyl)tetrahydrofuran-3-ol (Example compound 2, 7 mg, 0.024 mmol) was added, followed by the addition of adenosine deaminase (3 mg, ˜33 units). The resulting mixture was stirred at 40° C. and stirred for 4 days. The reaction mixture was concentrated under vacuum and the residue was purified by preparative-HPLC with the following conditions: Column: X-Bridge C18, 19*150 mm, 5 um; mobile phase, water with 10 mmol ammonium bicarbonate and acetonitrile (6% acetonitrile up to 30% in 5 min, hold 95% for 2 min, down to 40% in 2 min); Detector, uv 254&220 nm. The product-containing fractions were collected and lyophilized to give the title compound 2A as a solid. ^1H-NMR: (400 MHz, d6-DMSO, ppm): δ 11.58 (brs, 1H), 7.86 (s, 1H), 7.22 (d, J=1.6 Hz, 1H), 6.44 (t, J=5.8 Hz, 1H), 5.47 (d, J=4.8 Hz, 1H), 5.26-5.22 (m, 1H), 4.39-4.35 (m, 1H), 3.55-3.45 (m, 2H), 3.42 (s, 1H), 2.41-2.24 (m, 2H). ^19F-NMR: (376 MHz, d6-DMSO, ppm): δ −165.50 (s, 1F). LC-MS: (ES, m/z): 294.15 [M+H]^+.
(§3) Using the described procedures, conversion of compounds 4, 8 and 9 to 4A, 8A and 9A, respectively, was not detected (NA=substrate insensitive to adenosine deaminase).

[2] = system: HIV-1 (H9IIIB virus) replication in MT4-GFP cells; test: Viking Assay: antiviral potency in a multiple round HIV-1 infection assay; type: cell-based; conditions: inhibition of reproductive ratio R0 between ~48 h and ~72 h post-infection, read-out: Viking, IC50 (10% NHS)
Protocol: Assessing Antiviral Potency in a Multiple Round HIV-1 Infection Assay.
Cells were then washed and re-suspended in either RPMI 1640 containing 10% or 50% normal human serum at 1.6×10^5 cells/mL (10% or 50% NHS conditions) or in 100% normal human serum at 2×10^5 cells/mL (100% NHS conditions).
The increase in the number of green cells over ˜24 h period gives the reproductive ratio, R0, which is typically 5-15 and has been shown experimentally to be in logarithmic phase (data not shown). Inhibition of R0 is calculated for each well, and IC50s determined by non-linear 4-parameter curve fitting.

[3] = system: HIV-1 (H9IIIB virus) replication in MT4-GFP cells; test: Antiviral Persistence assay; conditions: for Fold shift IC50 72 h/24 h: ratio of IC50 72 h to IC50 24 h; for pIC50: washed, then infected, 10% NHS
Protocol: HIV-1 replication was monitored using MT4-gag-GFP clone D3 (hereafter designate MT4-GFP), which are MT-4 cells modified to harbor a GFP reporter gene, the expression of which is dependent on the HIV-1 expressed proteins tat and rev. Productive infection of an MT4-GFP cell with HIV-1 results in GFP expression approximately 24 h post-infection. MT4-GFP cells were maintained at 37° C./5% CO2/90% relative humidity in RPMI 1640 supplemented with 10% fetal bovine serum, 100 U/mL penicillin/streptomycin, and 400 μg/mL G418 to maintain the reporter gene. For 72 hour time point persistence assay (72 h plate) and 24 hour time point control assay (24 h plate), MT4-GFP cells were washed and re-suspended in RPMI 1640 containing 10% normal human serum at either 1.6×10^5 or 2.4×10^5 cells/mL (10% NHS). Compound plates were prepared by dispensing compounds dissolved in DMSO into wells of 384 well cell culture plates ([…]) using an ECHO acoustic dispenser. Each compound was tested in a 10 point serial 3-fold dilution (typical final concentrations: 4.2 μM-0.21 nM). Controls included no inhibitor (DMSO only) and a combination of three antiviral agents (efavirenz, indinavir, and an integrase strand transfer inhibitor at final concentrations of 4 μM each). Cells were added (50 μL/well) to compound plates and were incubated at 37° C./5% CO2/90% relative humidity for 24 hours. The cells were washed with 5×40 uL of RPMI 1640 supplemented with 10% NHS and 100 U/mL penicillin/streptomycin. 72 h plate was return back to 37° C. incubator for additional 48 hour incubation. 40 uL of the cells from each well of the 24 h plate or the 72 h plate (after 48 hour incubation post wash) were transferred to a poly-D-lysine coated plate. The cells were then infected with H9IIIB virus at an approximate multiplicity of infection of 0.1 in the same incubation conditions.
Infected cells were quantified at ˜24 h post-infection, by counting the number of green cells in each well using an Acumen eX3 scanner. IC50s for the compounds in Table 4 were determined by non-linear 4-parameter curve fitting.
The antiviral persistence assay is meant to assess for the persistence of antiviral activity upon removal of the nucleoside. […] The publication AIDS Research and Therapy, 2009, 6:5, highlights the value of antiviral persistence.

[4] = target: T2, human ADA type 1 (Homo sapiens, UniProt P00813); test: Adenosine Deaminase (ADA) Half-Life; type: in vitro ADME; conditions: Tris-HCl buffer pH 7.5, 40° C., procedures as for compound 2 to 2A
T2 sequence (P00813 1-363): T1 sequence (P00813 1-363)
Protocol: as §1, §2, §3

[5] = system: MT4-GFP cells; test: CTG Assay: cytotoxicity in CellTiter-Glo Luminescent Cell Viability Assay; type: cell-based; conditions: 10% normal human serum, 48 h incubation, top concentration 8.4 μM
Protocol: Assessing Cytotoxicity in CellTiter-Glo Luminescent Cell Viability Assay (CTG).
Cells were then washed and resuspended in RPMI 1640 containing 10% normal human serum at a density of 0.8×10^5 cells/mL. […] Controls included DMSO. […] CTG reagent (Promega, G7573) was added to the cell plates after 48 h incubation according to the manufacturer's description. Luminescence signals were recorded on EnVision plate reader (PerkinElmer). LD50s were determined by non-linear 4-parameter curve fitting. The resulting data is shown in Table 3 with the marketed HIV nucleoside reverse transcriptase inhibitor AZT (azidothymidine, zidovudine) included as a control.

[6] = Human immunodeficiency virus 1, 10% normal human serum
[7] = Human immunodeficiency virus 1, 24 h, read-out: IC50 24 h (nM)
[8] = Human immunodeficiency virus 1, read-out: IC50 72 h (nM)

half-life at 4.8 mM [1]: < 0.167 h
Compound: Nc1ncnc2c1ncn2[C@H]1C[C@H](O)[C@@H](CO)O1 [Deoxy- adenosine, deoxyadenosine, reference compound]

half-life at 4.8 mM [1]: < 1 h
Compound: C#C[C@]1(CO)O[C@@H](n2cnc3c(N)ncnc32)C[C@@H]1O [EDA, (2R,3S,5R)-5-(6-amino-9H-purin-9-yl)-2-ethynyl-2-(hydroxymethyl)tetrahydrofuran-3-ol, reference compound]

Compound: C#C[C@]1(CO)O[C@@H](n2ccc3c(N)ncnc32)C[C@@H]1O [Example 1, (2R,3S,5R)-5-(4-amino-7H-pyrrolo[2,3-d]pyrimidin-7-yl)-2-ethynyl-2-(hydroxymethyl)tetrahydrofuran-3-ol]
pIC50 [2, 6]: 8.89 | half-life at 4.8 mM [1]: 288 h | IC50 [3, 7]: 0.8 nM | IC50 [3, 8]: 36 nM | Fold shift IC50 72 h/24 h [3]: 45

Compound: C#C[C@]1(CO)O[C@@H](n2cc(F)c3c(N)ncnc32)C[C@@H]1O [Example 2, (2R,3S,5R)-5-(4-amino-5-fluoro-7H-pyrrolo[2,3-d]pyrimidin-7-yl)-2-ethynyl-2-(hydroxymethyl)tetrahydrofuran-3-ol]
pIC50 [2, 6]: 8.80 | half-life at 4.8 mM [1]: 16 h | IC50 [3, 7]: 6.6 nM | IC50 [3, 8]: 193 nM | Fold shift IC50 72 h/24 h [3]: 29

Compound: C#C[C@]1(CO)O[C@@H](n2ccc3c(N)nc(Cl)nc32)C[C@@H]1O [Example 4, (2R,3S,5R)-5-(4-amino-2-chloro-7H-pyrrolo[2,3-d]pyrimidin-7-yl)-2-ethynyl-2-(hydroxymethyl)tetrahydrofuran-3-ol]
pIC50 [2, 6]: 8.40 | conversion to the corresponding inosine product by adenosine deaminase [4]: not detected | IC50 [3, 7]: 9.6 nM | IC50 [3, 8]: 360 nM | Fold shift IC50 72 h/24 h [3]: 37.5

Compound: C#C[C@]1(CO)O[C@@H](n2ccc3c(N)nc(N)nc32)C[C@@H]1O [Example 8, (2R,3S,5R)-5-(2,4-diamino-7H-pyrrolo[2,3-d]pyrimidin-7-yl)-2-ethynyl-2-(hydroxymethyl)tetrahydrofuran-3-ol]
pIC50 [2, 6]: 6.71 | conversion to the corresponding inosine product by adenosine deaminase [4]: not detected | IC50 [3, 7]: 840 nM | IC50 [3, 8]: 29000 nM | Fold shift IC50 72 h/24 h [3]: 34.5

Compound: C#C[C@]1(CO)O[C@@H](n2ccc3c(N)nc(F)nc32)C[C@@H]1O [Example 9, (2R,3S,5R)-5-(4-amino-2-fluoro-7H-pyrrolo[2,3-d]pyrimidin-7-yl)-2-ethynyl-2-(hydroxymethyl)tetrahydrofuran-3-ol]
pIC50 [2, 6]: 7.99 | conversion to the corresponding inosine product by adenosine deaminase [4]: not detected | IC50 [3, 7]: 37 nM | IC50 [3, 8]: 270 nM | Fold shift IC50 72 h/24 h [3]: 7.3

Compound: C#C[C@]1(CO)O[C@@H](c2ccc3c(N)ncnn23)C[C@@H]1O [Example 11, (2R,3S,5R)-5-(4-aminopyrrolo[2,1-f][1,2,4]triazin-7-yl)-2-ethynyl-2-(hydroxymethyl)tetrahydrofuran-3-ol]
pIC50 [2, 6]: 7.76 | half-life at 4.8 mM [1]: 3 h | IC50 [3, 7]: 12.4 nM | IC50 [3, 8]: 1950 nM | Fold shift IC50 72 h/24 h [3]: 157

Compound: C#C[C@]1(CO)O[C@@H](c2cnc3c(N)ncnn23)C[C@@H]1O [Example 22, (2R,3S,5R)-5-(4-aminoimidazo[2,1-f][1,2,4]triazin-7-yl)-2-ethynyl-2-(hydroxymethyl)tetrahydrofuran-3-ol]
pIC50 [2, 6]: 7.42 | half-life at 4.8 mM [1]: 0.167 h | IC50 [3, 7]: 38 nM | IC50 [3, 8]: 350 nM | Fold shift IC50 72 h/24 h [3]: 9.2

Compound: C#C[C@]1(CO)O[C@@H](c2cnn3c(N)ncnc23)C[C@@H]1O [Example 23, (2R,3S,5R)-5-(4-aminopyrazolo[1,5-a][1,3,5]triazin-8-yl)-2-ethynyl-2-(hydroxymethyl)tetrahydrofuran-3-ol]
pIC50 [2, 6]: 7.19 | half-life at 4.8 mM [1]: 0.167 h | IC50 [3, 7]: 64 nM | IC50 [3, 8]: 700 nM | Fold shift IC50 72 h/24 h [3]: 10.9

Compound: (2R,3S,5R)-5-(4-aminopyrrolo[2,1-f][1,2,4]triazin-7-yl)-3-hydroxy-2-(hydroxymethyl)tetrahydrofuran-2-carbonitrile [Example 12]
pIC50 ([2]; 10% normal human serum): 6.13 | LD50 [5]: >8.4 µM | pIC50 ([3]; read-out: IC50 24 h, 24 h plate: cells incubated with compound 24 hours): 6.06 | pIC50 ([3]; read-out: IC50 72 h, 72 h plate: compound 24 hours, additional 48 hour incubation): 4.60
